In patent US20120004228A1, “Bis Aromatic Compounds for Use as LTC4 Synthase Inhibitors” (BIOLIPOX AB, priority 2009, published 2012):

biological target: T1, Recombinant human LTC4 synthase (Homo sapiens, UniProt Q16873); assay: In vitro LTC4 synthase assay (LTA4 to LTC4, HTRF detection); type: biochemical; conditions: not given
T1 construct: made in house; host or cells: Pichia pastoris ('Piccia pastoralis' [sic])
T1 sequence (Q16873 1-150): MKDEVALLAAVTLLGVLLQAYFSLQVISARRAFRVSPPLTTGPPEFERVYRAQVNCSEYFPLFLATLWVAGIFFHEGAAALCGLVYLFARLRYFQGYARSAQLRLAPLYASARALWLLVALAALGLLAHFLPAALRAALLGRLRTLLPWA
Procedure: In the assay, LTC4 synthase catalyses the reaction where the substrate LTA4 is converted to LTC4. Recombinant human LTC4 synthase is expressed in Piccia pastoralis and the purified enzyme is dissolved in 25 mM tris-buffer pH 7.8 supplemented with 0.1 mM glutathione (GSH) and stored at −80° C. The assay is performed in phosphate buffered saline (PBS) pH 7.4 and 5 mM GSH in 384-well plates.
The following is added chronologically to each well:
1. 48 μL LTC4 synthase in PBS with 5 mM GSH. The total protein concentration in this solution is 0.5 μg/mL. 2. 1 μL inhibitor in DMSO (final concentration 10 μM). 3. Incubation of the plate at room temperature for 10 min. 4. 1 μL LTA4 (final concentration 2.5 μM). 5. Incubation of the plate at room temperature for 5 min. 6. 10 μL of the incubation mixture is analysed using homogenous time resolved fluorescent (HTRF) detection.

| IC50 | SMILES |
| --- | --- |
| 834 nM | CN(c1ccc(Cl)cc1)c1ccc(C(=NO)c2cc(Oc3ccccc3)cc(C(=O)O)c2)cc1 (mixture of isomers) [Example 17, 3-({4-[(4-Chlorophenyl)(methyl)amino]phenyl}(hydroxyimino)methyl)-5-phenoxy-benzoic acid] |
| 538 nM | CN(c1ccc(Cl)cc1)c1ccc(C(=O)c2cc(C(=O)O)cc(C(=O)Nc3ccccc3Cl)c2)nc1 [2:2, 3-{5-[(4-Chlorophenyl)(methyl)amino]picolinoyl}-5-(2-chlorophenyl-carbamoyl)-benzoic acid] |
| 214 nM | CN(c1ccc(Cl)cc1)c1ccc(C(=O)c2cc(NC(=O)c3ccccc3)cc(C(=O)O)c2)nc1 [2:8, 3-Benzamido-5-{5-[(4-chlorophenyl)(methyl)amino]picolinoyl}benzoic acid] |
| 412 nM | COc1cccc(C(=O)Nc2cc(C(=O)O)cc(C(=O)c3ccc(N(C)c4ccc(Cl)cc4)cn3)c2)c1 [2:10, 3-{5-[(4-Chlorophenyl)(methyl)amino]picolinoyl}-5-(3-methoxybenzamido)-benzoic acid] |
| 682 nM | CN(c1ccc(Cl)cc1)c1ccc(C(=O)c2cc(C(=O)O)cc(C(=O)Nc3cc(F)ccc3F)c2)cc1 [2:15, 3-{4-[(4-Chlorophenyl)(methyl)amino]benzoyl}-5-(2,5-difluorophenyl-carbamoyl)benzoic acid] |
| 390 nM | O=C(O)c1cc(Nc2ccc(Cl)cc2)ccc1C(=O)c1ccc(Nc2ccc(C(=O)C3CC3)cc2)cc1 [6:2, 5-(4-Chlorophenylamino)-2-[4-(4-cyclopropylcarbonylphenylamino)-benzoyl]benzoic acid] |
| 188 nM | COc1cccc(Oc2cc(C(=O)O)cc(C(=O)c3ccc(N(C)c4ccc(Cl)cc4)cn3)c2)c1 [8:3, 3-{5-[(4-Chlorophenyl)(methyl)amino]picolinoyl}-5-(3-methoxyphenoxy)benzoic acid] |
| 274 nM | CN(c1ccc(Cl)cc1)c1ccc(C(=O)c2cc(Oc3ccc(C#N)cc3)cc(C(=O)O)c2)nc1 [8:7, 3-{5-[(4-Chlorophenyl)(methyl)amino]picolinoyl}-5-(4-cyanophenoxy)benzoic acid] |
| 61 nM | CN(c1ccc(Cl)cc1)c1ccc(C(=O)c2cc(Oc3ccccc3)cc(C(=O)O)c2)cc1 [8:11, 3-{4-[(4-Chlorophenyl)(methyl)amino]benzoyl}-5-phenoxybenzoic acid] |
| 109 nM | CN(c1ccc(Cl)cc1)c1ccc(C(=O)c2cc(Oc3ccc4c(c3)OCO4)cc(C(=O)O)c2)cc1 [8:12, 5-{4-[(4-Chlorophenyl)(methyl)amino]benzoyl}-3-(3,4-methylenedioxyphenoxy)-benzoic acid] |
| 59 nM | CN(c1ccc(Cl)cc1)c1ccc(C(=O)c2cc(Oc3cccc(F)c3)cc(C(=O)O)c2)cc1 [8:13, 3-{4-[(4-Chlorophenyl)(methyl)amino]benzoyl}-5-(3-fluorophenoxy)benzoic acid] |
| 87 nM | CN(c1ccc(Cl)cc1)c1ccc(C(=O)c2cc(Oc3cccc(Cl)c3)cc(C(=O)O)c2)cc1 [8:20, 3-(3-Chlorophenoxy)-5-{4-[(4-chlorophenyl)(methyl)amino]benzoyl}benzoic acid] |

Further lines, the compound ahead of its results:

| SMILES | IC50 |
| --- | --- |
| CON=C(c1ccc(N(C)c2ccc(Cl)cc2)cc1)c1cc(Oc2ccccc2)cc(C(=O)O)c1 (mixture of isomers) [Example 18, 3-({4-[(4-Chlorophenyl)(methyl)amino]phenyl}(methoxyimino)methyl)-5-phenoxybenzoic acid] | 745 nM |
| CN(c1ccc(Cl)cc1)c1ccc(C(=O)c2cc(C(=O)O)cc(C(=O)Nc3ccc(Cl)cc3)c2)nc1 [2:3, 3-{5-[(4-Chlorophenyl)(methyl)amino]picolinoyl}-5-(4-chlorophenyl-carbamoyl)-benzoic acid] | 343 nM |
| CN(c1ccc(Cl)cc1)c1ccc(C(=O)c2cc(C(=O)O)cc(C(=O)Nc3cccc(Cl)c3)c2)nc1 [2:4, 3-{5-[(4-Chlorophenyl)(methyl)amino]picolinoyl}-5-(3-chlorophenyl-carbamoyl)-benzoic acid] | 390 nM |
| CCCCCCNC(=O)c1cc(C(=O)O)cc(C(=O)c2ccc(N(C)c3ccc(Cl)cc3)cn2)c1 [2:5, 3-{5-[(4-Chlorophenyl)(methyl)amino]picolinoyl}-5-(hexylcarbamoyl)benzoic acid] | 102 nM |
| COc1ccc(NC(=O)c2cc(C(=O)O)cc(C(=O)c3ccc(N(C)c4ccc(Cl)cc4)cn3)c2)cc1 [2:6, 3-{5-[(4-Chlorophenyl)(methyl)amino]picolinoyl}-5-(4-methoxyphenyl-carbamoyl)benzoic acid] | 744 nM |
| CN(c1ccc(Cl)cc1)c1ccc(C(=O)c2cc(NC(=O)c3cccc(Cl)c3)cc(C(=O)O)c2)nc1 [2:9, 3-(3-Chlorobenzamido)-5-{5-[(4-chlorophenyl)(methyl)amino]picolinoyl}benzoic acid] | 276 nM |
| CN(c1ccc(Cl)cc1)c1ccc(C(=O)c2cc(C(=O)O)cc(C(=O)Nc3ccc4c(c3)OC(F)(F)O4)c2)cc1 [2:12, 3-{4-[(4-Chlorophenyl)(methyl)amino]benzoyl}-5-[3,4-(difluoromethylene-dioxy)phenylcarbamoyl]benzoic acid] | 424 nM |
| CN(c1ccc(Cl)cc1)c1ccc(C(=O)c2cc(C(=O)O)cc(C(=O)Nc3ccccc3OC(F)F)c2)cc1 [2:13, 3-{4-[(4-Chlorophenyl)(methyl)amino]benzoyl}-5-[2-(difluoromethoxy)phenyl-carbamoyl]benzoic acid] | 706 nM |
| COc1ccc(NC(=O)c2cc(C(=O)O)cc(C(=O)c3ccc(N(C)c4ccc(Cl)cc4)cc3)c2)cc1OC [2:14, 3-{4-[(4-Chlorophenyl)(methyl)amino]benzoyl}-5-(3,4-dimethoxyphenyl-carbamoyl)benzoic acid] | 925 nM |
| CN(c1ccc(Cl)cc1)c1ccc(C(=O)c2ccc(Nc3ccc(Cl)cc3)cc2)c(C(=O)O)c1 [6:3, 2-[4-(4-Chlorophenylamino)benzoyl]-5-[(4-chlorophenyl)(methyl)amino]-benzoic acid] | 224 nM |
| CN(c1ccc(Cl)cc1)c1ccc(C(=O)c2cc(Oc3ccc(F)c(F)c3)cc(C(=O)O)c2)nc1 [8:2, 3-{5-[(4-Chlorophenyl)(methyl)amino]picolinoyl}-5-(3,4-difluorophenoxy)-benzoic acid] | 41 nM |
| COc1ccccc1Oc1cc(C(=O)O)cc(C(=O)c2ccc(N(C)c3ccc(Cl)cc3)cn2)c1 [8:4, 3-{5-[(4-Chlorophenyl)(methyl)amino]picolinoyl}-5-(2-methoxyphenoxy)benzoic acid] | 525 nM |
| CN(c1ccc(Cl)cc1)c1ccc(C(=O)c2cc(Oc3ccc(Cl)cc3)cc(C(=O)O)c2)nc1 [8:5, 3-(4-Chlorophenoxy)-5-{5-[(4-chlorophenyl)(methyl)amino]picolinoyl}benzoic acid] | 76 nM |
| Cc1ccc(Oc2cc(C(=O)O)cc(C(=O)c3ccc(N(C)c4ccc(Cl)cc4)cn3)c2)cc1 [8:6, 3-{5-[(4-Chlorophenyl)(methyl)amino]picolinoyl}-5-(p-tolyloxy)benzoic acid] | 120 nM |
| CN(c1ccc(Cl)cc1)c1ccc(C(=O)c2cc(Oc3ccccc3Cl)cc(C(=O)O)c2)nc1 [8:8, 3-(2-Chlorophenoxy)-{5-[(4-chlorophenyl)(methyl)amino]picolinoyl}benzoic acid] | 77 nM |
| CN(c1ccc(Cl)cc1)c1ccc(C(=O)c2cc(Oc3cccc(OC(F)(F)F)c3)cc(C(=O)O)c2)cc1 [8:10, 3-{4-[(4-Chlorophenyl)(methyl)amino]benzoyl}-5-[3-(trifluoromethoxy)phenoxy]-benzoic acid] | 171 nM |
| COc1cccc(Oc2cc(C(=O)O)cc(C(=O)c3ccc(N(C)c4ccc(Cl)cc4)cc3)c2)c1 [8:14, 3-{4-[(4-Chlorophenyl)(methyl)amino]benzoyl}-5-(3-methoxyphenoxy)benzoic acid] | 143 nM |
| CCN(CC)c1ccc(Oc2cc(C(=O)O)cc(C(=O)c3ccc(N(C)c4ccc(Cl)cc4)cc3)c2)cc1 [8:15, 3-{4-[(4-Chlorophenyl)(methyl)amino]benzoyl}-5-(4-(diethylamino)phenoxy)-benzoic acid] | 183 nM |
| CN(c1ccc(Cl)cc1)c1ccc(C(=O)c2cc(Oc3ccc(C(C)(C)C)cc3)cc(C(=O)O)c2)cc1 [8:16, 3-(4-tert-Butylphenoxy)-5-{4-[(4-chlorophenyl)(methyl)amino]benzoyl}benzoic acid] | 159 nM |
| Cc1ccccc1Oc1cc(C(=O)O)cc(C(=O)c2ccc(N(C)c3ccc(Cl)cc3)cc2)c1 [8:17, 3-{4-[(4-Chlorophenyl)(methyl)amino]benzoyl}-5-(o-tolyloxy)benzoic acid] | 198 nM |
| CN(c1ccc(Cl)cc1)c1ccc(C(=O)c2cc(Oc3ccccc3Cl)cc(C(=O)O)c2)cc1 [8:19, 3-(2-Chlorophenoxy)-5-{4-[(4-chlorophenyl)(methyl)amino]benzoyl}benzoic acid] | 80 nM |
| CN(c1ccc(Cl)cc1)c1ccc(C(=O)c2cc(Oc3ccc(Cl)cc3)cc(C(=O)O)c2)cc1 [8:21, 3-(4-Chlorophenoxy)-5-{4-[(4-chlorophenyl)(methyl)amino]benzoyl}benzoic acid] | 49 nM |
| CN(c1ccc(Cl)cc1)c1ccc(C(=O)c2cc(C(=O)O)cc(N(C)c3ccc(Cl)cc3)c2)nc1 [9:3, 3-[(4-Chlorophenyl)(methyl)amino]-5-{5-[(4-chlorophenyl)(methyl)amino]-picolinoyl}benzoic acid] | 45 nM |

same assay, conditions: 5 min; total concentration of title compound in the assay 10 μM

| inhibition at 10 µM | SMILES |
| --- | --- |
| 100% | O=C(O)c1cc(Nc2ccc(Cl)cc2)ccc1C(=O)c1ccc(Nc2ccc(C(=O)C3CC3)cc2)cc1 [6:2, 5-(4-Chlorophenylamino)-2-[4-(4-cyclopropylcarbonylphenylamino)-benzoyl]benzoic acid] |
| 99% | CN(c1ccc(Cl)cc1)c1ccc(C(=O)c2ccc(Nc3ccc(Cl)cc3)cc2)c(C(=O)O)c1 [6:3, 2-[4-(4-Chlorophenylamino)benzoyl]-5-[(4-chlorophenyl)(methyl)amino]-benzoic acid] |
